The structures appear in SMILES notation. Counter-ions that a name gives are not always drawn.

In the first assay the target is LsrK (Salmonella typhimurium, UniProt Q8ZKQ6). As to the kind of experiment: biochemical. The assay is classed as biochemical, S. typhimurium.
Chain of LsrK (Q8ZKQ6 whole entry): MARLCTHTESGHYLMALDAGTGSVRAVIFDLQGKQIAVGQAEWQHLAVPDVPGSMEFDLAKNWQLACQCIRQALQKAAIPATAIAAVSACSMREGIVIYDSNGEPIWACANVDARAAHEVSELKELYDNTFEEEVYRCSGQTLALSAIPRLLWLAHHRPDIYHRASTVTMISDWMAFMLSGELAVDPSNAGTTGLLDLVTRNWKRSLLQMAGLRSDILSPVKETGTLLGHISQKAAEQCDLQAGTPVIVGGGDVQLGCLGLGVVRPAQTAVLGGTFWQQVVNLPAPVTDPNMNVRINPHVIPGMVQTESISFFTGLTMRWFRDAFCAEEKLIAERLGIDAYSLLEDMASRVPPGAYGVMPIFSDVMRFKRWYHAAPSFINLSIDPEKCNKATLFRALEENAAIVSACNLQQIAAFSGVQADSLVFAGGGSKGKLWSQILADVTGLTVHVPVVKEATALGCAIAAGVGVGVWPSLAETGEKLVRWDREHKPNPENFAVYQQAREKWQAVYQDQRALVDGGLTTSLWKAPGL
Details: not given
One may read the inhibition as the drop in the measured response relative to a control, in per cent. For `CC1=CC2C(CC1=O)C(C)=CCC2C(C)C` (stereo not shown) [MUUROLLADIE-3-ONE], the inhibition at 50 µM was found to be 1%. The same measure, in the same setting: with `COc1c(C)c2c(c(O)c1C/C=C(\C)CCC(=O)O)C(=O)OC2` [MYCOPHENOLIC ACID] the figure was 1%; with `c1cncc(C2=NCCC2)c1` [MYOSMINE], 2%.

`O=c1c(O)c(-c2cc(O)c(O)c(O)c2)oc2cc(O)cc(O)c12` [MYRICETIN]: the inhibition at 50 µM was 14%. On the same count and under the same terms, the figure for `CCOc1ccc2ccccc2c1C(=O)N[C@@H]1C(=O)N2[C@@H]1SC(C)(C)[C@@H]2C(=O)O` [NAFCILLIN SODIUM] is 23%; for `COc1ccc2cc([C@H](C)CO)ccc2c1` [NAPROXOL] it is 0%; for `C[C@@H]1C/C=C/C=C/C=C/C=C/[C@H](O[C@@H]2O[C@H](C)[C@@H](O)[C@H](N)[C@@H]2O)C[C@@H]2O[C@](O)(C[C@@H](O)C[C@H]3O[C@@H]3/C=C/C(=O)O1)C[C@H](O)[C@H]2C(=O)O` [NATAMYCIN] it is 12%. As to `CC(C)[C@H]1CC[C@H](C(=O)N[C@H](Cc2ccccc2)C(=O)O)CC1` [NATEGLINIDE], the inhibition at 50 µM worked out at 1%. On the same count and under the same terms, the figure for `CN1CCOC(c2ccccc2)c2ccccc2C1` (stereo not shown) [NEFOPAM] is 1%; for `CC(C)=CCC/C(C)=C\CO` [NEROL] it is 1%. Turning to `NC(=O)c1cccnc1` [NIACINAMIDE], the inhibition at 50 µM is 1%. As for `O=C(CCNNC(=O)c1ccncc1)NCc1ccccc1` [NIALAMIDE], the inhibition at 50 µM stood at 3%. As to `O=C(Nc1ccc([N+](=O)[O-])cc1Cl)c1cc(Cl)ccc1O` [NICLOSAMIDE], the inhibition at 50 µM amounted to 0%. Still for that read-out and setting: with `OCc1cccnc1` [NICOTINYL ALCOHOL TARTRATE] the figure was 1%; with `COC(=O)C1=C(C)NC(C)=C(C(=O)OC)C1c1ccccc1[N+](=O)[O-]` [NIFEDIPINE], 98%. `O=C(O)C1CCCNC1` (stereo not shown) [NIPECOTIC ACID]: the inhibition at 50 µM stood at 0%. On the same count and under the same terms, with `COC(=O)C1=C(C)NC(C)=C(C(=O)OCC(C)C)C1c1ccccc1[N+](=O)[O-]` (stereo not shown) [NISOLDIPINE] the figure was 154%. Still for that read-out and setting: with `CCOC(=O)C1=C(C)NC(C)=C(C(=O)OC)C1c1cccc([N+](=O)[O-])c1` (stereo not shown) [NITRENDIPINE] the figure was 1%. In general, IC50 refers to the concentration that gives 50% inhibition. Take `NC[C@H](O)c1ccc(O)c(O)c1` [NOREPINEPHRINE, reference compound]: half-maximal inhibition (IC50) was put at 30 µM and the inhibition at 50 µM amounted to 74%.

With `C#C[C@]1(O)CC[C@H]2[C@@H]3CCC4=CC(=O)CC[C@@H]4[C@H]3CC[C@@]21C` [NORETHINDRONE], the inhibition at 50 µM was found to be 0%. For the compound `C#C[C@]1(O)CC[C@H]2[C@@H]3CCC4=C(CCC(=O)C4)[C@H]3CC[C@@]21C` [NORETHYNODREL], the inhibition at 50 µM turned out to be 1%. On to `c1ccc2c(c1)[nH]c1cnccc12` [NORHARMAN], for which the inhibition at 50 µM came to 1%. Regarding `COc1ccc2c(c1OC)C(=O)O[C@@H]2[C@H]1c2c(cc3c(c2OC)OCO3)CCN1C` [NOSCAPINE HYDROCHLORIDE], the inhibition at 50 µM was 1%. The same measure, in the same setting: the figure for `CO[C@@H]1[C@@H](OC(N)=O)[C@@H](O)[C@H](Oc2ccc3c(O)c(NC(=O)c4ccc(O)c(CC=C(C)C)c4)c(=O)oc3c2C)OC1(C)C` [NOVOBIOCIN SODIUM] is 0%; for `COC1=CC(=O)C(O)=C/C1=C\C=C\c1ccccc1` [OBTUSAQUINONE] it is 130%. The same measure, in the same setting: the figure for `NCC(O)c1ccc(O)cc1` (stereo not shown) [OCTOPAMINE HYDROCHLORIDE] is 2%; for `CC1COc2c(N3CCN(C)CC3)c(F)cc3c(=O)c(C(=O)O)cn1c23` (stereo not shown) [OFLOXACIN] it is 4%; for `CCCc1nc(C(C)(C)O)c(C(=O)OCc2oc(=O)oc2C)n1Cc1ccc(-c2ccccc2-c2nnn[nH]2)cc1` [OLMESARTAN MEDOXOMIL] it is 0%.

Consider `COc1ccc2[nH]c([S+]([O-])Cc3ncc(C)c(OC)c3C)nc2c1` (stereo not shown) [OMEPRAZOLE], for which the inhibition at 50 µM amounted to 6%.

Turning to `COc1ccc(CC(=O)c2ccc(O)cc2O)cc1` [ONONETIN], the inhibition at 50 µM turned out to be 5%. Same read-out and setting: the figure for `NCCC[C@H](N)C(=O)O` [ORNITHINE] is 1%; for `O=C(O)c1cc(=O)[nH]c(=O)[nH]1` [OROTIC ACID] it is 1%. With `O=C(O)CCc1nc(-c2ccccc2)c(-c2ccccc2)o1` [OXAPROZIN], the inhibition at 50 µM is 13%.

Turning to `CN(C(=O)CN(CCO)CC(=O)N(C)C(C)(C)Cc1ccccc1)C(C)(C)Cc1ccccc1` [OXETHAZAINE], the inhibition at 50 µM was 0%. On the same count and under the same terms, with `COC(=O)Nc1nc2ccc([S+]([O-])c3ccccc3)cc2[nH]1` (stereo not shown) [OXFENDAZOLE] the figure was 27%; with `CCCOc1ccc2nc(NC(=O)OC)[nH]c2c1` [OXIBENDAZOLE], 2%; with `NCCc1cc(O)c(O)cc1O` [OXIDOPAMINE HYDROCHLORIDE], 117%. Still for that read-out and setting: with `CCn1cc(C(=O)O)c(=O)c2cc3c(cc21)OCO3` [OXOLINIC ACID] the figure was 1%; with `CCCCC1C(=O)N(c2ccccc2)N(c2ccc(O)cc2)C1=O` (stereo not shown) [OXYPHENBUTAZONE], 93%; with `CC[N+](C)(CC)CCOC(=O)C(O)(c1ccccc1)C1CCCCC1` (stereo not shown) [OXYPHENONIUM BROMIDE], 4%. The same measure, in the same setting: the figure for `CN(C)[C@@H]1C(O)=C(C(N)=O)C(=O)[C@@]2(O)C(O)=C3C(=O)c4c(O)cccc4[C@@](C)(O)[C@H]3[C@H](O)[C@@H]12` [OXYTETRACYCLINE] is 94%; for `CC(=O)O[C@H]1C[C@@H]2CC[C@@H]3[C@H](CC[C@@]4(C)[C@H]3C[C@H]([N+]3(C)CCCCC3)[C@@H]4OC(C)=O)[C@@]2(C)C[C@@H]1[N+]1(C)CCCCC1` [PANCURONIUM BROMIDE] it is 0%.

Consider `CC(C)(CO)[C@@H](O)C(=O)NCCC(=O)NCCSSCCNC(=O)CCNC(=O)[C@H](O)C(C)(C)CO` [PANTETHINE], for which the inhibition at 50 µM amounted to 0%. On the same count and under the same terms, with `COc1ccnc(C[S+]([O-])c2nc3ccc(OC(F)F)cc3[nH]2)c1OC` (stereo not shown) [PANTOPRAZOLE] the figure was 3%. Consider `COc1ccc(Cc2nccc3cc(OC)c(OC)cc23)cc1OC` [PAPAVERINE HYDROCHLORIDE], for which the inhibition at 50 µM worked out at 1%.

Consider `Oc1ccc(Cl)cc1` [PARACHLOROPHENOL], for which the inhibition at 50 µM amounted to 1%.

Take `N=C1C=CC(=C(c2ccc(N)cc2)c2ccc(N)cc2)C=C1` [PARA[…]]: the inhibition at 50 µM amounted to 138%. On the same count and under the same terms, the figure for `NC[C@@H]1O[C@H](O[C@H]2[C@@H](O)[C@H](O[C@@H]3[C@@H](O)[C@H](N)C[C@H](N)[C@H]3O[C@H]3O[C@H](CO)[C@@H](O)[C@H](O)[C@H]3N)O[C@@H]2CO)[C@H](N)[C@@H](O)[C@@H]1O` [PAROMOMYCIN SULFATE] is 3%; for `Fc1ccc([C@@H]2CCNC[C@H]2COc2ccc3c(c2)OCO3)cc1` [PAROXETINE HYDROCHLORIDE] it is 1%; for `C=C1C(=O)O[C@H]2[C@H]1CC/C(C)=C/CC[C@@]1(C)O[C@@H]21` [PARTHENOLIDE] it is 3%. The same measure, in the same setting: with `O=C1C=C2C(=CCOC2O)O1` (stereo not shown) [PATULIN] the figure was 99%. Take `CN1C(C)(C)CCCC1(C)C` [PEMPIDINE TARTRATE]: the inhibition at 50 µM worked out at 2%.

For `CC1(C)S[C@@H]2[C@H](NC(=O)Cc3ccccc3)C(=O)N2[C@H]1C(=O)O` [PENICILLIN G POTASSIUM], the inhibition at 50 µM came out at 4%. The same measure, in the same setting: with `C1CCc2nnnn2CC1` [PENTYLENETETRAZOL] the figure was 0%; with `C1CCC(C(CC2CCCCN2)C2CCCCC2)CC1` (stereo not shown) [PERHEXILINE MALEATE], 1%. In the case of `N#Cc1ccc2c(c1)N(CCCN1CCC(O)CC1)c1ccccc1S2` [PERICIAZINE], the inhibition at 50 µM was 4%.

Regarding `CCC[C@H](N[C@@H](C)C(=O)N1[C@H](C(=O)O)C[C@@H]2CCCC[C@@H]21)C(=O)OCC` [PERINDOPRIL ERBUMINE], the inhibition at 50 µM was 15%. The same measure, in the same setting: the figure for `CO[C@H]1[C@H](O)[C@H](O[C@H]2CC[C@@]3(C=O)[C@H](CC[C@@H]4[C@@H]3CC[C@]3(C)[C@@H](C5=CC(=O)OC5)CC[C@]43O)C2)O[C@@H](C)[C@@H]1O` [PERUVOSIDE] is 1%.

Staying with this assay, now noted: 50 µM.
In the case of `CNCc1ccccc1.Cl` [N-METHYLBENZYLAMINE HYDROCHLORIDE], the “Inhibition (%)” value amounted to 0. For `NC(N)=NC(=O)c1nc(Cl)c(N2CCCCCC2)nc1N` [N.N-HEXAMETHYLENEAMILORIDE], the “Inhibition (%)” value is on record as 1.

With `CN1CCC[C@H]1c1cccnc1.O=C(O)C(O)C(O)C(=O)O.O=C(O)C(O)C(O)C(=O)O` [NICOTINE DITARTRATE], the “Inhibition (%)” value worked out at 0. As for `NC(=O)c1cc([N+](=O)[O-])cc([N+](=O)[O-])c1` [NITROMIDE], the “Inhibition (%)” value was determined as 1. On the same count and under the same terms, the figure for `C[C@@H]1[C@H](O)[C@@H](C)/C=C/C=C/CC/C=C/C=C/C=C/C=C/C(O[C@H]2O[C@H](C)[C@@H](O)[C@H](N)[C@@H]2O)CC2O[C@](O)(CC(O)C(O)CCC(O)CC(O)CC(O)CC(=O)O[C@H]1C)CC(O)C2C(=O)O` (stereo partly shown) [NYSTATIN] is 41; for `CC(=O)O[C@H]1CC[C@]2(C)[C@H]3CC=C4[C@@H]5CC(C)(C)CC[C@]5(C(=O)O)CC[C@@]4(C)[C@]3(C)CC[C@H]2C1(C)C` [OLEANOLIC ACID ACETATE] it is 14. On the same count and under the same terms, the figure for `CN1CCCN=C1/C=C/c1cccc(O)c1.O=C(O)c1cc2ccccc2c(Cc2c(O)c(C(=O)O)cc3ccccc23)c1O` [OXANTEL PAMOATE] is 6; for `COC[C@]12CN(C=O)[C@@H]3[C@@H]4[C@H](OC)[C@H]1[C@@]3([C@@H](OC)C[C@H]2O)[C@@H]1C[C@@]2(O)[C@H](OC(=O)c3ccccc3)[C@@H]1[C@]4(OC(C)=O)[C@@H](O)[C@@H]2OC` [OXONITINE] it is 0. For `COc1cc2c(cc1-c1cc3cc4ccoc4cc3oc1=O)OCO2` [PACHYRRHIZIN], the “Inhibition (%)” value amounted to 1. With `CCn1cc(C(=O)O)c(=O)c2cc(F)c(N3CCN(C)CC3)cc21.CS(=O)(=O)O` [PEFLOXACINE MESYLATE], the “Inhibition (%)” value is 2. The same measure, in the same setting: with `CC(=O)OCC(OC(C)=O)C(OC(C)=O)C(OC(C)=O)C(OC(C)=O)C(COC(C)=O)OC(C)=O` (stereo not shown) [PERSITOL HEPTAACETATE] the figure was 3.

These data come from paper PMC6627609, “Targeting Quorum Sensing: High-Throughput Screening to Identify Novel LsrK Inhibitors” (International Journal of Molecular Sciences, 2019).
